Source: paper PMC6698794, “Catalytic Knockdown of miR-21 by Artificial Ribonuclease: Biological Performance in Tumor Model” (Frontiers in Pharmacology, 2019)
Values joined by “and” are separate entries in the source; they are usually repeats but may differ in a detail not shown here. Equal values may be shown once.

Experiments:
[1] = tested on: RLS40 lymphosarcoma; test: Tumor transplantation assay: RLS40 cells treated ex vivo, then inoculated intramuscularly; assay type: in vivo, CBA mice; settings: for Tumor doubling time, DT: DT = (t − t0) × ln 2/(ln V − ln V0)
Protocol: (§1) RLS40 ascites were taken from CBA mice intraperitoneally injected with tumor cells (2 × 10^6 in 0.2 ml buffered saline) into their abdominal cavities. RLS40 cells, isolated from ascites fluid by filtration through LSM were divided into seven portions: 1) untreated cells; 2) the cells incubated with Lipofectamine; the cells transfected with 1 µM of 3) h-ODN, 4) 2′-OMe, 5) Inh, 6) miR-21-miRNase, or 7) luc-POC each. After 4 h of transfection, cell suspensions (0.1 ml, 2 × 10^6 cells) were intramuscularly inoculated into the right lower limb of CBA mice for solid tumor development. As soon as tumors began to be palpable, the tumor volumes were measured every 2–3 days using calipers. Tumor volumes were calculated as V = (π/6 × length × width × height). Hepatic index was estimated as (liver weight/mouse weight) × 100% and as 5.0% for healthy CBA mice. Tumor doubling time (DT) was estimated as DT = (t − t0) × ln 2/(ln V − ln V0), where (t − t0) indicates the length of time between two measurements of tumor size and V0 and V denote the tumor volume at two points of the measurement ([Ozono et al., 2004]).
Figure 3 Antitumor effect of miR-21-specific miRNase. (A) Retardation of RLS40 growth in vivo after treatment of RLS40 cells with antisense oligonucleotides, control conjugate (luc-POC), or miR-21-miRNase. (B) Tumor volume on day 19 after RLS40 transplantation. Mice were injected with RLS40 cells either without any treatment (w/t) or treated with Lipofectamine (LF), commercial miR-21 inhibitor at concentration 0.1 µM (Inh 0.1, recommended) and 1 µM (Inh 1, in accordance to concentration of miRNase used in the study), control conjugate (luc-POC, 1 µM), hairpin 2′OMe oligonucleotide (2′-OMe, 1 µM), hairpin antisense oligonucleotide (h-ODN, 1 µM) or miR-21-specific miRNase (miR-21-miRNase, 1 µM). Data were statistically analyzed using two-way ANOVA with post hoc Tukey test. Data are presented as mean ± s.e. p-value indicates a statistically reliable difference. (C) Doubling time of RLS40 tumors after treatment with oligonucleotides and conjugates. TEXT PRINTED IN THE PICTURE: (C) untreated: DT, days: 2,45±0,49 | (C) LF: DT, days: 2,48±0,35 | (C) Inh 0.1: DT, days: 2,56±0,59 | (C) Inh 1: DT, days: 13,90±0,46 | (C) 2’-OMe: DT, days: 3,17±1,45 | (C) luc-POC: DT, days: 2,40±0,45 | (C) h-ODN: DT, days: 3,00±1,83 | (C) miR-21-miRNase: DT, days: 12,77±0,34

[2] = tested on: RLS40 lymphosarcoma; test: Hepatic index of mice implanted with treated RLS40 cells; assay type: in vivo; settings: cells treated with 1 µM; (liver weight/mouse weight) × 100%; 5.0% for healthy CBA mice; Mean ± SE
Protocol: as §1
Supplementary Table 2. Hepatic indexes of mice implanted with RLS40 treated with antisense
oligonucleotides, control luc-POC and miR-21-miRNase
Type of treatment Hepatic index, %* p-value (vs control)
* – Mean ± SE; s.i. – statistically insignificant
Hepatic index was estimated as (liver weight/mouse weight) × 100% and as 5.0% for healthy CBA
The MDR status of RLS40 may add to the burden on the liver, when this type of tumor
metastasizes into the liver (Sen’kova et al., 2012). Ex vivo treatment of RLS40 cells by
oligonucleotides and miRNase avoids the toxic effect of antisense oligonucleotides, their conjugates
and transfection reagents directly on the tumor-bearing animal. This may allow consideration of
whether the decrease of migration activity of tumor cells translated into reduced metastatic burden of
RLS40 on the liver. Treatment of the cells seeding the tumor may not reduce migration and […]

[3] = tested on: B16 cells; test: In vitro invasiveness assay (xCELLigence, Matrigel-coated CIM-Plates); assay type: cell-based, mouse; settings: 1 µM with Lipofectamine
Protocol: B16 cells were pre-seeded (2 × 10^5 per well of 24-well plates) in DMEM/10% FBS a day before transfection. Medium was replaced with serum-free DMEM, prior to incubation for 4 h with h-ODN, 2′-OMe, Inh (hsa-miR-21 5 p inhibitor, Ambion, USA), miR-21-miRNase, or luc-POC, each (0.1 or 1 µM) pre-complexed with Lipofectamine (Thermo Fisher Scientific, USA) in Opti-MEM medium (Thermo Fisher Scientific, USA) according to manufacturer’s instructions, then cells were cultivated in fresh culture standard medium for 24–72 h.
Real-time cell analysis (xCELLigence, ACEABiosciences, USA) used CIM-Plates held at 37°C under an atmosphere of 5% CO2. Top chamber wells were coated with Matrigel (20 µl per well, diluted 1:40 with cold serum-free DMEM) and allowed to polymerize (4 h at 37°C under 5% CO2) prior to cell seeding. Bottom chamber wells were filled with DMEM/10% FBS (160 µl each), prior to assembly of the chambers, when serum-free DMEM was added to the top wells (30 µl each) and equilibrated (1 h at 37°C under 5% CO2). At 4 h after transfection, B16 cells (4 × 10^4) were seeded into each top chamber well in serum-free DMEM and pre-incubated for 30 min at room temperature before monitoring (xCELLigence set to collect impedance data, reported as cell index at least once every 30 min).
Figure 2 Biological effect of the miR-21-specific miRNase. (A) Apoptotic profile of B16 melanoma cells after transfection with miR-21-miRNase and control luc-POC. Cytofluorimetric analysis of cells after staining with Annexin V-FITC/PI 48 h after transfection with miRNase or luc-POC (1 µM) in complex with Lipofectamine2000. Q1—population of living cells; Q2—Annexin V-FITC+/PI-, early apoptosis; Q3—Annexin V-FITC+/PI+, late apoptosis; Q4—Annexin V-FITC-/PI+, necrosis. (B) Average percentage of apoptotic (early and late apoptosis) and necrotic B16 cell population. Data represent mean ± s.e. of four independent experiments.(C, D) Invasion activity of B16 cells after incubation with Lipofectamine (LF) alone or treated with either hairpin antisense oligonucleotide (h-ODN), hairpin 2′-OMe oligonucleotide (2′-OMe), commercial miR-21 inhibitor (Inh), miR-21-miRNase, and control conjugate (luc-POC) in the concentration of 1 µM. Migration of cells was recorded in real time using the xCELLigence cell analysis system. Control—B16 cells without treatment. Data represent mean ± s.d. of four independent experiments.

[4] = cells treated with 1 µM before transplantation

Substance | Increase of tumor doubling time over untreated control (w/t) [1, 4] | Tumor doubling time, DT [1, 4] | Hepatic index [2] | Inhibition of invasion of B16 cells relative to luc-POC ([3]; time point 40 h) | Inhibition of invasion of B16 cells relative to control ([3]; time point 40 h, four independent experiments) | Retardation of tumor growth, mean tumor volume times less than in the control group ([1]; cells transfected once with 1 µM for 4 h, 2 × 10^6 cells i.m. into CBA mice, day 19) | Tumor doubling time against w/t (in words) [1, 4] | Migration rate of transfected B16 cells (in words) ([3]; compared with Lipofectamine alone)
acetyl-[(LeuArg)2Gly]2-aminohexyl-AGTCTGATAAGCTACAAGTCAGCGAAAGCTGACTTG [miR-21-miRNase, peptide acetyl-[(LeuArg)2Gly]2 conjugated through aminohexyl linker to 5′-end of miR-21-targeted hairpin oligodeoxyribonucleotide] | > 5 fold | 12,77±0,34 days and 12.77 days | 5.1±0.16% | about 70% | about 70% |  |  | 
h-ODN: miR-21-targeted hairpin deoxyribooligonucleotide AGTCTGATAAGCTACAAGTCAGCGAAAGCTGACTTG, unconjugated with the peptide (DNA, backbone and methylation of C not given here; hairpin at 3' end, unconjugated) |  | 3,00±1,83 days | 5.23±0.17% |  |  | about 2 fold | did not show a statistically significant difference | almost the same rate as cells incubated with Lipofectamine
